The record followed here is patent publication US20110306606A1, “NOVEL 2,6-SUBSTITUTED-3-NITROPYRIDINE DERIVATIVE, METHOD FOR PREPARING SAME, AND PHARMACEUTICAL COMPOSITION INCLUDING SAME” (priority 2008, published 2011).

For the data set, the system named is Osteoblasts (Calvarial cells). Briefly: Cytotoxicity test (MTT). To be noted: 1 μM compound, 72 hours, in comparison with vehicle control.
For the compound `O=[N+]([O-])c1ccc(N2CCC(O)CC2)nc1Nc1ccc(N2CCNCC2)c(F)c1` [Compound 218, 2-[(3-fluoro-4-piperazino)phenylamino]-6-(4-hydroxypiperidino)-3-nitropyridine], the “Cell viability (%) Calvarial cell” value is recorded as 96%.

`NC(=O)C1CCN(c2ccc(Nc3nc(NCCN4CCOCC4)ccc3[N+](=O)[O-])cc2F)CC1` [Compound 300, 2-{[3-fluoro-4-(4-carbamoylpiperidino)]phenylamino}-6-[2-(morpholin-1-yl)ethylamino]-3-nitropyridine]: the “Cell viability (%) Calvarial cell” value is reported as 118%.

As to `CC1=NCCN1c1ccc([N+](=O)[O-])c(Nc2ccc(N3CCSCC3)c(F)c2)n1` [Compound 207, 2-[(3-fluoro-4-thiomorpholino)phenylamino]-6-[(2-methyl-4,5-dihydro)imidazol-1-yl]-3-nitropyridine], the “Cell viability (%) Calvarial cell” value was found to be 102%.

As for `O=C(O)C1CCN(c2ccc(Nc3nc(NCCCn4ccnc4)ccc3[N+](=O)[O-])cc2F)CC1` [Compound 323, 2-{[3-fluoro-4-(4-carboxylicpiperidino)]phenylamino}-6-[(3-imidazol-1-yl)propylamino]-3-nitropyridine], the “Cell viability (%) Calvarial cell” value was 105%.

As to `O=C(O)C1CCN(c2ccc(Nc3nc(NCCCN4CCOCC4)ccc3[N+](=O)[O-])cc2F)CC1` [Compound 325, 2-{[3-fluoro-4-(4-carboxylicpiperidino)]phenylamino}-6-[(3-morpholin-1-yl)propylamino]-3-nitropyridine], the “Cell viability (%) Calvarial cell” value came out at 106%.

With `CN1CCN(c2ccc([N+](=O)[O-])c(Nc3ccc(N4CCOCC4)c(F)c3)n2)CC1` [Compound 200, 2-[(3-fluoro-4-morpholino)phenylamino]-6-(4-methylpiperazin-1-yl)-3-nitropyridine], the “Cell viability (%) Calvarial cell” value is listed as 107%.

Regarding `O=[N+]([O-])c1ccc(NCCc2ccccn2)nc1Nc1ccc(N2CCCC(CO)C2)c(F)c1` (centres unmarked) [Compound 287, 2-{[3-fluoro-4-(3-hydroxymethylpiperidino)]phenylamino}-6-[2-(2-pyridyl)ethylamino]-3-nitropyridine], the “Cell viability (%) Calvarial cell” value was found to be 103%.

Turning to `CN1CCN(c2ccc([N+](=O)[O-])c(Nc3ccc(N4CCC(N)CC4)c(F)c3)n2)CC1` [Compound 254, 2-{[3-fluoro-4-(4-aminopiperidino)]phenylamino}-6-(4-methylpiperazin-1-yl)-3-nitropyridine], the “Cell viability (%) Calvarial cell” value came out at 101%.

Regarding `NC1CCN(c2ccc(Nc3nc(N4CCC(O)CC4)ccc3[N+](=O)[O-])cc2F)CC1` [Compound 251, 2-{[3-fluoro-4-(4-aminopiperidino)]phenylamino}-6-(4-hydroxypiperidino)-3-nitropyridine], the “Cell viability (%) Calvarial cell” value turned out to be 97%.

As to `CC1=NCCN1c1ccc([N+](=O)[O-])c(Nc2ccc(N3CCC(O)CC3)c(F)c2)n1` [Compound 240, 2-{[3-fluoro-4-(4-hydroxypiperidino)]phenylamino}-6-[(2-methyl-4,5-dihydro)imidazol-1-yl]-3-nitropyridine], the “Cell viability (%) Calvarial cell” value is 97%.

In the case of `NC(=O)C1CCCN(c2ccc(Nc3nc(N4CCC(N)CC4)ccc3[N+](=O)[O-])cc2F)C1` (centres unmarked) [Compound 309, 2-{[3-fluoro-4-(3-carbamoylpiperidino)]phenylamino}-6-(4-aminopiperidino)-3-nitropyridine], the “Cell viability (%) Calvarial cell” value is 110%.

On to `CNc1ccc([N+](=O)[O-])c(Nc2ccc(N3CCCCC3C)c(F)c2)n1` (centres unmarked) [Compound 261, 2-{[3-fluoro-4-(2-methylpiperidino)]phenylamino}-6-(methylamino)-3-nitropyridine], for which the “Cell viability (%) Calvarial cell” value amounted to 114%.

As to `NC(=O)C1CCCN(c2ccc(Nc3nc(N4CCNCC4)ccc3[N+](=O)[O-])cc2F)C1` (centres unmarked) [Compound 306, 2-{[3-fluoro-4-(3-carbamoylpiperidino)]phenylamino}-6-(piperazin-1-yl)-3-nitropyridine], the “Cell viability (%) Calvarial cell” value came to 122%.

In the case of `NC(=O)C1CCN(c2ccc(Nc3nc(N4CCOCC4)ccc3[N+](=O)[O-])cc2F)CC1` [Compound 296, 2-{[3-fluoro-4-(4-carbamoylpiperidino)]phenylamino}-6-morpholino-3-nitropyridine], the “Cell viability (%) Calvarial cell” value turned out to be 97%.

In the case of `CCN(CCO)c1ccc([N+](=O)[O-])c(Nc2ccc(-c3csc(C4CCCCC4)n3)cc2)n1` [Compound 156, 2-[4-(2-cyclohexylthiazol-4-yl)phenylamino]-6-[(N-ethyl-2-hydroxyethyl)amino]-3-nitropyridine], the “Cell viability (%) Calvarial cell” value worked out at 108%.

Regarding `CC(C)Nc1ccc([N+](=O)[O-])c(Nc2ccc(N3CCCC(CO)C3)c(F)c2)n1` (centres unmarked) [Compound 276, 2-{[3-fluoro-4-(3-hydroxymethylpiperidino)]phenylamino}-6-(isopropylamino)-3-nitropyridine], the “Cell viability (%) Calvarial cell” value turned out to be 102%.

Consider `CCN(CC)c1ccc(Nc2nc(N3CCC(N)CC3)ccc2[N+](=O)[O-])cc1F` [Compound 187, 2-[(3-fluoro-4-diethylamino)phenylamino]-6-(4-aminopiperidino)-3-nitropyridine], for which the “Cell viability (%) Calvarial cell” value is 102%.

In the case of `NC(=O)C1CCN(c2ccc(Nc3nc(N4CCC(N)CC4)ccc3[N+](=O)[O-])cc2F)CC1` [Compound 297, 2-{[3-fluoro-4-(4-carbamoylpiperidino)]phenylamino}-6-(4-aminopiperidino)-3-nitropyridine], the “Cell viability (%) Calvarial cell” value is listed as 107%.

Regarding `Nc1ccc(Nc2nc(NCCCN3CCOCC3)ccc2[N+](=O)[O-])cc1` [Compound 69, 2-[4-(amino)phenylamino]-6-[3-(morpholin-1-yl)propylamino]-3-nitropyridine], the “Cell viability (%) Calvarial cell” value came to 110%.

For `CN1CCN(c2ccc([N+](=O)[O-])c(Nc3ccc(N4CCC(C(N)=O)CC4)c(F)c3)n2)CC1` [Compound 295, 2-{[3-fluoro-4-(4-carbamoylpiperidino)]phenylamino}-6-(4-methylpiperazin-1-yl)-3-nitropyridine], the “Cell viability (%) Calvarial cell” value was found to be 106%.

With `CCN(CC)c1ccc(Nc2nc(N3CCOCC3)ccc2[N+](=O)[O-])cc1F` [Compound 184, 2-[(3-fluoro-4-diethylamino)phenylamino]-6-morpholino-3-nitropyridine], the “Cell viability (%) Calvarial cell” value was determined as 110%.

`CC(C)CNc1ccc([N+](=O)[O-])c(Nc2ccc(N3CCCCC3C)c(F)c2)n1` (centres unmarked) [Compound 263, 2-{[3-fluoro-4-(2-methylpiperidino)]phenylamino}-6-(isobutylamino)-3-nitropyridine]: the “Cell viability (%) Calvarial cell” value is recorded as 108%.

Consider `CCN(CC)c1ccc(Nc2nc(N3CCN=C3C)ccc2[N+](=O)[O-])cc1F` [Compound 181, 2-[(3-fluoro-4-diethylamino)phenylamino]-6-[(2-methyl-4,5-dihydro)imidazol-1-yl]-3-nitropyridine], for which the “Cell viability (%) Calvarial cell” value was 106%.

With `O=[N+]([O-])c1ccc(NCc2ccncc2)nc1Nc1ccc(N2CCCC(CO)C2)c(F)c1` (centres unmarked) [Compound 286, 2-{[3-fluoro-4-(3-hydroxymethylpiperidino)]phenylamino}-6-[(4-pyridyl)methylamino]-3-nitropyridine], the “Cell viability (%) Calvarial cell” value stood at 123%.

Turning to `O=[N+]([O-])c1ccc(N2CCOCC2)nc1Nc1ccc(N2CCCC(CO)C2)c(F)c1` (centres unmarked) [Compound 283, 2-{[3-fluoro-4-(3-hydroxymethylpiperidino)]phenylamino}-6-morpholino-3-nitropyridine], the “Cell viability (%) Calvarial cell” value is 103%.

In the case of `CC(C)CNc1ccc([N+](=O)[O-])c(Nc2ccc(N3CCC(C(N)=O)CC3)c(F)c2)n1` [Compound 291, 2-{[3-fluoro-4-(4-carbamoylpiperidino)]phenylamino}-6-(isobutylamino)-3-nitropyridine], the “Cell viability (%) Calvarial cell” value worked out at 87%.

For `CC(C)(C)Nc1ccc([N+](=O)[O-])c(Nc2ccc(N3CCSCC3)c(F)c2)n1` [Compound 211, 2-[(3-fluoro-4-thiomorpholino)phenylamino]-6-(t-butylamino)-3-nitropyridine], the “Cell viability (%) Calvarial cell” value stood at 110%.

For `Nc1ccc(Nc2nc(NCCN3CCOCC3)ccc2[N+](=O)[O-])cc1` [Compound 68, 2-[4-(amino)phenylamino]-6-[2-(morpholin-1-yl)ethylamino]-3-nitropyridine], the “Cell viability (%) Calvarial cell” value is 103%.

For the compound `NC1CCN(c2ccc(Nc3nc(N4CCOCC4)ccc3[N+](=O)[O-])cc2F)CC1` [Compound 255, 2-{[3-fluoro-4-(4-aminopiperidino)]phenylamino}-6-morpholino-3-nitropyridine], the “Cell viability (%) Calvarial cell” value turned out to be 100%.

Take `CC(C)CNc1ccc([N+](=O)[O-])c(Nc2ccc(N3CCCC(CO)C3)c(F)c2)n1` (centres unmarked) [Compound 277, 2-{[3-fluoro-4-(3-hydroxymethylpiperidino)]phenylamino}-6-(isobutylamino)-3-nitropyridine]: the “Cell viability (%) Calvarial cell” value was 107%.

With `CC1CCCCN1c1ccc(Nc2nc(N3CCC(O)CC3)ccc2[N+](=O)[O-])cc1F` (centres unmarked) [Compound 265, 2-{[3-fluoro-4-(2-methylpiperidino)]phenylamino}-6-(4-hydroxypiperidino)-3-nitropyridine], the “Cell viability (%) Calvarial cell” value is reported as 104%.

In the case of `CCN(CC)c1ccc(Nc2nc(-n3ccnc3C(C)C)ccc2[N+](=O)[O-])cc1F` [Compound 180, 2-[(3-fluoro-4-diethylamino)phenylamino]-6-[(2-isopropyl)imidazol-1-yl]-3-nitropyridine], the “Cell viability (%) Calvarial cell” value stood at 100%.

As for `CCN(CC)c1ccc(Nc2nc(N3CCN(C)CC3)ccc2[N+](=O)[O-])cc1F` [Compound 183, 2-[(3-fluoro-4-diethylamino)phenylamino]-6-(4-methylpiperazin-1-yl)-3-nitropyridine], the “Cell viability (%) Calvarial cell” value is on record as 113%.

As for `O=[N+]([O-])c1ccc(N2CCOCC2)nc1Nc1ccc(N2CCC(O)CC2)c(F)c1` [Compound 247, 2-{[3-fluoro-4-(4-hydroxypiperidino)]phenylamino}-6-morpholino-3-nitropyridine], the “Cell viability (%) Calvarial cell” value was found to be 94%.

Consider `CC(C)CNc1ccc([N+](=O)[O-])c(Nc2ccc(N3CCC(N)CC3)c(F)c2)n1` [Compound 250, 2-{[3-fluoro-4-(4-aminopiperidino)]phenylamino}-6-(isobutylamino)-3-nitropyridine], for which the “Cell viability (%) Calvarial cell” value is 85%.
